Data: article PMC7140522, “The Pyrazolo[3,4-d]pyrimidine Derivative, SCO-201, Reverses Multidrug Resistance Mediated by ABCG2/BCRP” (Cells, 2020)
Like-named read-outs stand apart in the source and are kept apart here.

Experiments:
[1] = system: CYP1A, CYP2B6, CYP2C8, CYP2C9, CYP2C19, CYP2D6, CYP3A; assay: in vitro; details: both, human, pooled human liver microsomes, pH 7.4
HT29SN-38-RES cells = assay: MDR reversal analysis with MTT assay, HT29SN-38-RES; type: cell-based, human; details: 72 hours, oxaliplatin is not a substrate for BCRP
Experimental: Control conditions consisted of full growth medium. All treatments were performed in triplicate.

CYP2B6 = assay: CYP induction in human hepatocytes, CYP2B6 mRNA; type: in vitro ADME; details: plated human hepatocytes
ABCG2 = target: T1, ABCG2 (Homo sapiens, UniProt Q9UNQ0); assay: Pheophorbide A accumulation assay in MDCK cells; type: cell-based; details: flow cytometry
T1 construct: expressed in transfected cells; host or cells: MDCK-II (canine kidney)
T1 sequence (Q9UNQ0 whole entry): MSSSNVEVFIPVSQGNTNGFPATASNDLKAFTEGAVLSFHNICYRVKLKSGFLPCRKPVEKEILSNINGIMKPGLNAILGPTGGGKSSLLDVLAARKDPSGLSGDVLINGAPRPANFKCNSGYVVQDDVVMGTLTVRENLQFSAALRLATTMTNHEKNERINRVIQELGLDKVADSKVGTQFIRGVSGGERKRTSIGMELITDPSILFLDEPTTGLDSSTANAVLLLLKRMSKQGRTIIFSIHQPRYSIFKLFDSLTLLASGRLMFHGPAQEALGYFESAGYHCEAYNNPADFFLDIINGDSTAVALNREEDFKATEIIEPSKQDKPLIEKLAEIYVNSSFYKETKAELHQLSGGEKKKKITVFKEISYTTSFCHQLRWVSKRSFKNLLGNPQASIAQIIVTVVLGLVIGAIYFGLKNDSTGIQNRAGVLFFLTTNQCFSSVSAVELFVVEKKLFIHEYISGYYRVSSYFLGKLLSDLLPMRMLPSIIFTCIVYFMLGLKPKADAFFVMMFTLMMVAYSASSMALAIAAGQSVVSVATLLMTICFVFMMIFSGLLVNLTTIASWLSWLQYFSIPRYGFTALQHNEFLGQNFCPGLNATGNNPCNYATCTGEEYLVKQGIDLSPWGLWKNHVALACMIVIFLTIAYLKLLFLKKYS

CYP1A = CYP1A (Homo sapiens, UniProt P05177)
Sequence of CYP1A (P05177 whole entry): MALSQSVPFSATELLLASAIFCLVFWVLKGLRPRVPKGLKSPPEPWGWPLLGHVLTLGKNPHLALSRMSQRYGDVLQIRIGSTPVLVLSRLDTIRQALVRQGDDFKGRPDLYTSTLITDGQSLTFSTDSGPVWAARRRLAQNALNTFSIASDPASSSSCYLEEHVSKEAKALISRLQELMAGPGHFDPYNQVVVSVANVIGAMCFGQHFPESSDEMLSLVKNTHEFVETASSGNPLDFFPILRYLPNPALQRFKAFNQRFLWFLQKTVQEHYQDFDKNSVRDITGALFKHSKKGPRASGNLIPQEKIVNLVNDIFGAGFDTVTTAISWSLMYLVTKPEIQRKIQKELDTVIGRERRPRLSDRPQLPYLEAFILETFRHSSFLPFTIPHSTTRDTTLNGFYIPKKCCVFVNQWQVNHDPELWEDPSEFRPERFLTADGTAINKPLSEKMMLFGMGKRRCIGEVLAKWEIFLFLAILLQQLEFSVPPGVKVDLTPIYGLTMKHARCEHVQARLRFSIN

[2] = set-up: method as in PMID 26260222; details: cited from earlier work
CYP3A = assay: CYP induction in human hepatocytes, CYP3A enzyme activity; type: in vitro ADME
Experimental: The following procedure was carried out to test whether SCO-201 induces CYP1A, CYP2B6, and CYP3A activities in human hepatocytes. The procedure was designed in accordance with the FDA Guidance for Industry on Drug Interaction Studies (2006). Male and female human hepatocytes were thawed and plated into collagen-coated 96-well plates in serum-containing medium (plating medium) at a density of 0.7 × 10^6 viable cells/mL. The hepatocytes were cultured in a humidified incubator at 37 °C and 5% CO2. At 4 h post plating, human hepatocytes were washed once with fresh plating medium, followed by overnight incubation. At 24 h after plating, the plating medium was removed, and the hepatocytes were overlaid with extracellular matrix (ECM) (Sigma) or Matrigel (BD) in the serum-free medium (incubation medium), and then incubated for another 24 h. Incubation medium with 0.1% DMSO was used as the negative control. After the 2-day recovery period, the hepatocytes were treated with SCO-201 or a known inducer (Table S3) in the incubation medium on day 3 and day 4. The known inducer was tested as the positive control. On day 5, the medium was removed, and the cells were incubated with the respective CYP substrate in Krebs–Henseleit buffer (pH 7.4) containing 3 mM salicylamide for 30 min. The reaction was terminated by transferring the incubation mixture to an equal volume of acetonitrile/methanol mixture (1/1, v/v). Samples were mixed and centrifuged. Supernatants are used for HPLC-MS/MS analysis of the corresponding metabolite. Peak areas corresponding to the metabolite were recorded. The assay was rendered valid if enzyme activity with the positive control was at least twofold greater than negative control.
Cells 2020, 9, x FOR PEER REVIEW 9 of 9
Substrate (conc.) Metabolite Assay
Ethoxyresorufin (2 µM) Resorufin CYP1A
Bupropion (200 µM) Hydrozyl-bupropion CYP2B6
Midazolam (10 µM) 1-hydroxymidazolam CYP3A
139 Table S3: In vitro DMPK analysis: CYP induction.
140 were applied as inducers of the investigated CYPs.
144 References for supplementary materials
146 1. […]

CYP1A2 = assay: CYP induction in human hepatocytes, CYP1A2 mRNA; type: in vitro ADME; details: plated human hepatocytes
[3] = Donor 1, read-out: Mean Fold Induction of mRNA at 1× 10^−4 M
[4] = Donor 2, read-out: Mean Fold Induction of mRNA at 1× 10^−4 M
[5] = Donor 3, read-out: Mean Fold Induction of mRNA at 1× 10^−4 M

IC50 at 10 min [1]: ≥ 100 µM
fold induction at 2 days (CYP2B6; [3]): 0.17
fold induction at 2 days (CYP2B6; [4]): 0.52
fold induction at 2 days (CYP2B6; [5]): 0.45
IC50 (ABCG2): 0.145 µM
IC50 (CYP1A): > 100 µM
Mean Fold Enzyme Activity Induction at 1 × 10^−4 M (CYP3A; Donor 1): 1.3
Mean Fold Enzyme Activity Induction at 1 × 10^−4 M (CYP3A; Donor 2): 2.0
Mean Fold Enzyme Activity Induction at 1 × 10^−4 M (CYP3A; Donor 3): 0.4
fold induction at 2 days (CYP1A2; [3]): 0.24
fold induction at 2 days (CYP1A2; [4]): 0.39
fold induction at 2 days (CYP1A2; [5]): 0.26
Compound: Nc1nc(-c2ccccc2)nc2[nH]nc(Nc3ccc(C(F)(F)F)cc3)c12 [SCO-201]
combinatorial effect with oxaliplatin on cell viability (HT29SN-38-RES cells): no added effects
stability in serum [2]: stable in serum
